Assay results published in patent publication US10005767B2, “Compositions and methods for inhibition of the JAK pathway” (Rigel Pharmaceuticals, Inc., priority 2009, dated 2018).
pIC50: −log10 of the molar value. Structures can show the parent of a compound that is named as a salt.

test system: human primary T-cells, IL-2 stimulated proliferation (JAK-1 and JAK-3 dependent; reported as JAK3 activity); experiment: Human primary T-cell proliferation stimulated by IL-2 (Example 3); type: cell-based; settings: Homo sapiens, T-cell, tested under conditions described in Example 3 (IL-2 stimulated human primary T-cell proliferation); read-out: ability to inhibit JAK3 activity, IC50 range (Table V)
Summary of the method: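 Peripheral-blood human T-cells pre-activated via TCR/CD28, IL-2-starved overnight, then cultured 72 h at 37 °C with compound in Yssel's medium containing IL-2 (80 U/mL in cell suspension). Proliferation read as viable-cell ATP by CellTiter-Glo luminescence; reduction versus control taken as JAK pathway inhibition.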

Row | SMILES | pIC50
1 | CC(=O)c1ccc(Nc2ncc(C)c(Nc3ccc4oc(=O)[nH]c4c3)n2)cc1 [Compound I-129, 5-[2-(4-Acetyl-phenylamino)-5-methyl-pyrimidin-4-ylamino]-3H-benzooxazol-2-one] | > 6.30
2 | Cc1cnc(Nc2ccc3oc(=O)[nH]c3c2)nc1Nc1ccc2oc(=O)[nH]c2c1 [IV-22, 5,5′-(5-methylpyrimidine-2,4-diyl)bis(azanediyl)dibenzo[d]oxazol-2(3H)-one] | > 6.30
3 | COc1cc(Nc2ncc(C)c(Nc3cc(F)c4oc(=O)[nH]c4c3)n2)cc(C)c1F [Compound I-492, 7-fluoro-5-(2-(4-fluoro-3-methoxy-5-methylphenylamino)-5-methylpyrimidin-4-ylamino)benzo[d]oxazol-2(3H)-one] | > 6.30
4 | Cc1cc(Nc2ncc(C)c(Nc3ccc4oc(=O)[nH]c4c3)n2)ccc1-c1cccnc1 [Compound I-483, 5-(5-methyl-2-(3-methyl-4-(pyridin-3-yl)phenylamino)pyrimidin-4-ylamino)benzo[d]oxazol-2(3H)-one formate salt] | > 6.30
5 | Cc1cnc(Nc2ccc(N3CC[C@H](N(C)C)C3)nc2)nc1Nc1ccc2oc(=O)[nH]c2c1 [II-90, (S)-5-(2-(6-(3-(dimethylamino)pyrrolidin-1-yl)pyridin-3-ylamino)-5-methylpyrimidin-4-ylamino)benzo[d]oxazol-2(3H)-one] | > 6.30
6 | COc1ccc(Nc2ncc(C)c(Nc3ccc4oc(=O)[nH]c4c3)n2)cc1-c1cccnc1 [Compound I-487, 5-(2-(4-methoxy-3-(pyridin-3-yl)phenylamino)-5-methylpyrimidin-4-ylamino)benzo[d]oxazol-2(3H)-one formate salt] | > 6.30
7 | Cc1cnc(Nc2ccc3c(c2)C=CCNC3=O)nc1Nc1ccc2oc(=O)[nH]c2c1 [IV-18, (Z)-5-(5-methyl-2-(1-oxo-2,3-dihydro-1H-benzo[c]azepin-7-ylamino)pyrimidin-4-ylamino)benzo[d]oxazol-2(3H)-one] | > 6.30
8 | Cc1cnc(Nc2ccc3c(c2)CN(CC2CCCC2)C3)nc1Nc1ccc2oc(=O)[nH]c2c1 [III-10, N4-(benzo[d]oxazol-2(3H)-on-5-yl)-N2-(2-cyclopentylmethylisoindolin-5-yl)-5-methylpyrimidine-2,4-diamine] | > 6.30
9 | Cc1cnc(Nc2cc(C(F)(F)F)cc(C(F)(F)F)c2)nc1Nc1ccc2oc(=O)[nH]c2c1 [Compound I-169, 5-[2-(3,5-Bis-trifluoromethyl-phenylamino)-5-methyl-pyrimidin-4-ylamino]-3H-benzooxazol-2-one] | > 6.30
10 | Cc1cnc(Nc2cc(F)c(F)c(F)c2F)nc1Nc1ccc2oc(=O)[nH]c2c1 [Compound I-477, 5-[5-Methyl-2-(2,3,4,5-tetrafluoro-phenylamino)-pyrimidin-4-ylamino]-3H-benzooxazol-2-one] | 5.30 to 6.30
11 | Cc1cnc(Nc2ccc3cnccc3c2)nc1Nc1ccc2oc(=O)[nH]c2c1 [IV-53, 5-[2-(Isoquinolin-6-ylamino)-5-methyl-pyrimidin-4-ylamino]-3H-benzooxazol-2-one] | 5.00 to 5.30
12 | CCCNC(C)c1cccc(Nc2ncc(C)c(Nc3ccc4oc(=O)[nH]c4c3)n2)c1 (stereo not shown) [Compound I-208, 5-(5-methyl-2-(3-(1-(propylamino)ethyl)phenylamino)pyrimidin-4-ylamino)benzo[d]oxazol-2(3H)-one] | > 6.30
13 | Cc1cnc(Nc2ccc(O)cc2)nc1Nc1ccc2oc(=O)[nH]c2c1 [Compound I-425, 5-[2-(4-Hydroxy-phenylamino)-5-methyl-pyrimidin-4-ylamino]-3H-benzooxazol-2-one] | > 6.30
14 | COc1c(C)cc(Nc2ncc(C)c(Nc3ccc4oc(=O)[nH]c4c3)n2)cc1Cl [Compound I-265, 5-(2-(3-chloro-4-methoxy-5-methylphenylamino)-5-methylpyrimidin-4-ylamino)benzo[d]oxazol-2(3H)-one] | > 6.30
15 | Cc1cnc(Nc2cccc(S(N)(=O)=O)c2)nc1Nc1cc(C)c2oc(=O)[nH]c2c1 [Compound I-243, 3-(5-methyl-4-(7-methyl-2-oxo-2,3-dihydrobenzo[d]oxazol-5-ylamino)pyrimidin-2-ylamino)benzenesulfonamide] | > 6.30
16 | COc1cc(Nc2ncc(C)c(Nc3ccc4oc(=O)[nH]c4c3)n2)cc(C(F)F)c1 [Compound I-273, 5-(2-(3-(difluoromethyl)-5-methoxyphenylamino)-5-methylpyrimidin-4-ylamino)benzo[d]oxazol-2(3H)-one] | > 6.30
17 | CCN1CCN(c2ncc(Nc3ncc(C)c(Nc4ccc5oc(=O)[nH]c5c4)n3)cc2F)CC1 [II-114, N4-(benzo[d]oxazolin-2(3H)-one-5-yl)-N2-[2-(4-ethylpiperazin-1-yl)-3-fluoropyridine-5-yl]-5-methyl-2,4-pyrimidinediamine] | > 6.30
18 | COc1cc(C)cc(Nc2ncc(C)c(Nc3ccc4oc(=O)[nH]c4c3)n2)c1 [Compound I-259, 5-(2-(3-methoxy-5-methylphenylamino)-5-methylpyrimidin-4-ylamino)benzo[d]oxazol-2(3H)-one] | > 6.30
19 | Cc1cnc(Nc2ccc(N3CCC(NC(=O)C(F)(F)F)C3)nc2)nc1Nc1ccc2oc(=O)[nH]c2c1 (stereo not shown) [II-83, 2,2,2-trifluoro-N-(1-(5-(5-methyl-4-(2-oxo-2,3-dihydrobenzo[d]oxazol-5-ylamino)pyrimidin-2-ylamino)pyridin-2-yl)pyrrolidin-3-yl)acetamide] | > 6.30
20 | CCN(CC)C1CCN(C(C)c2cccc(Nc3ncc(C)c(Nc4ccc5oc(=O)[nH]c5c4)n3)c2)C1 (stereo not shown) [Compound I-214, 5-(2-(3-(1-(3-(diethylamino)pyrrolidin-1-yl)ethyl)phenylamino)-5-methylpyrimidin-4-ylamino)benzo[d]oxazol-2(3H)-one] | > 6.30

same assay, conditions: tested under conditions described in Example 3 (IL-2 stimulated human primary T-cell proliferation); read-out: ability to inhibit JAK3 activity, IC50 range (Table V)

Row | SMILES | pIC50
21 | Cc1cnc(Nc2ccc(N3CCOC[C@@H]3C)nc2)nc1Nc1ccc2oc(=O)[nH]c2c1 [II-134, 5-methyl-N2-[2-(3 S-methylmorpholino)pyridin-5-yl]-N4-(2-oxo-2,3-dihydro-1,3-benzoxazol-5-yl)-2,4-pyrimidinediamine] | > 6.30
22 | CCOP(=O)(OCC)N1CCN(c2ccc(Nc3ncc(C)c(Nc4ccc5oc(=O)[nH]c5c4)n3)cn2)C[C@H]1C [II-58, (R)-diethyl 2-methyl-4-(5-(5-methyl-4-(2-oxo-2,3-dihydrobenzo[d]oxazol-5-ylamino)pyrimidin-2-ylamino)pyridin-2-yl)piperazin-1-ylphosphonate] | > 6.30
23 | COc1cc(Nc2ncc(C)c(Nc3ccc4oc(=O)[nH]c4c3)n2)cc(C(F)(F)F)c1 [Compound I-228, 5-(2-(3-deuteratedmethoxy-5-(trifluoromethyl)phenylamino)-5-methylpyrimidin-4-ylamino)benzo[d]oxazol-2(3H)-one] | > 6.30
24 | Cc1cnc(Nc2ccc(N3CCOCC3)nc2)nc1Nc1ccc2oc(=O)[nH]c2c1 [II-17, N4-(benzo[d]oxazol-2(3H)-on-5-yl)-N2-((2-morpholinyl)pyridin-5-yl)-5-methylpyrimidine-2,4-diamine] | > 6.30
25 | Cc1cnc(Nc2cccc(S(N)(=O)=O)c2)nc1Nc1ccc2[nH]c(=O)[nH]c2c1 [Compound I-11, N4-(benzimidazolin-2-on-5-yl)-N2-((3-aminosulfonyl)phenyl)-5-methylpyrimidine-2,4-diamine] | > 6.30
26 | Cc1cnc(Nc2ccc(C(=O)NC3CCC3)cc2)nc1Nc1ccc2oc(=O)n(COP(=O)(OC(C)(C)C)OC(C)(C)C)c2c1 [Compound I-152, di-tert-butyl(5-(2-(4-(cyclobutylcarbamoyl)phenylamino)-5-methylpyrimidin-4-ylamino)-2-oxobenzo[d]oxazol-3(2H)-yl)methyl phosphate] | 5.30 to 6.30
27 | COc1cc(Nc2ncc(C)c(Nc3ccc4oc(=O)[nH]c4c3)n2)ccc1C [Compound I-351, N2-(3-methoxy-4-methyl)phenyl-5-methyl-N4-(2-oxo-2,3-dihydro-1,3-benzoxazol-5-yl)-2,4-pyrimidinediamine] | > 6.30
28 | Cc1cnc(Nc2ccc(OCCO)nc2)nc1Nc1ccc2oc(=O)[nH]c2c1 [II-142, N2-[2-(2-hydroxy)ethoxypyridin-5-yl]-5-methyl-N4-(2-oxo-2,3-dihydro-1,3-benzoxazol-5-yl)-2,4-pyrimidinediamine] | > 6.30
29 | Cn1c(=O)oc2cc(Nc3nc(Nc4ccc(F)c(NS(C)(=O)=O)c4)ncc3F)ccc21 [Compound I-92, N2-((4-fluoro-3-methylsulfonylamino)phenyl)-N4-(3-methyl-2-oxo-2,3-dihydrobenzo[d]oxazol-6-yl)-5-fluoropyrimidine-2,4-diamine] | < 5.00
30 | COc1ccc(Nc2ncc(C)c(Nc3ccc4oc(=O)[nH]c4c3)n2)cc1F [Compound I-350, N2-(3-fluoro-4-methoxy)phenyl-5-methyl-N4-(2-oxo-2,3-dihydro-1,3-benzoxazol-5-yl)-2,4-pyrimidinediamine] | > 6.30
31 | Cc1cnc(Nc2ccc3c(c2)CN(C(=O)OC(C)(C)C)C3)nc1Nc1ccc2oc(=O)[nH]c2c1 [III-3, N4-(benzo[d]oxazol-2(3H)-on-5-yl)-N2-(2-tert-butoxoxycarbonylisoindolin-5-yl)-5-methylpyrimidine-2,4-diamine] | > 6.30
32 | Cc1cnc(Nc2ccc(-c3ccncc3)c(C(F)(F)F)c2)nc1Nc1ccc2oc(=O)[nH]c2c1 [Compound I-330, 5-methyl-N4-(2-oxo-2,3-dihydro-1,3-benzoxazol-5-yl)-N2-[4-(pyridin-4-yl)-3-trifluoromethyl]phenyl-2,4-pyrimidinediamine] | 5.00 to 5.30
33 | Cc1cnc(Nc2ccc(NS(C)(=O)=O)cc2)nc1Nc1ccc2oc(=O)[nH]c2c1 [Compound I-52] | > 6.30
34 | Cc1cnc(Nc2cccc(S(C)(=O)=O)c2)nc1Nc1ccc2oc(=O)n(C)c2c1 [Compound I-69, N2-((3-methylsulfonyl)phenyl)-N4-(3-methyl-2-oxo-2,3-dihydrobenzo[d]oxazol-5-yl)-5-methylpyrimidine-2,4-diamine] | > 6.30
